For assay [1], the target named is T1, human D3 dopamine receptor (Homo sapiens (Human), UniProt P35462). Briefly: Radioligand binding (125I-IABN competition), D3. The conditions noted are these: for Ki: 125I-IABN competition, HEK cell membranes expressing human D3; for D2/D3 (D3 selectivity ratio, D2 Ki/D3 Ki): calculated D2 Ki/D3 Ki. As for the experimental part: (§1) The affinities of the target compounds were determined using radioligand binding experiments. […] Competition curves were modeled for a single site. Data from competition dose-response curves were analyzed using Tablecurve program (Jandel). IC50 values were converted to equilibrium dissociation constants (Ki values) using the Cheng and Prusoff correction.

The target in assay [2] is human D2-long dopamine receptor (Homo sapiens (Human), UniProt P14416). Briefly: Radioligand binding (125I-IABN competition), D2. The settings on record: HEK cell membranes expressing human D2-long. As for the experimental part:
as §1

For assay [3], the target named is T1, human D3 dopamine receptor. Briefly: Whole Cell Adenylyl Cyclase Assay, D3. In kind it is cell-based. The conditions noted are these: inhibition of forskolin (100 μM) stimulated cAMP, normalized to quinpirole; compound conc ≥10× Ki (per compound); mean ± S.E.M. The protocol: The intrinsic activity of the compounds was evaluated by determining their ability to inhibit forskolin-dependent (100 μM) stimulation of adenylyl cyclase activity using a whole cell assay. A whole cell-cyclic AMP accumulation assay was performed with stably transfected HEK cells expressing human D2 or D3 dopamine receptors. This assay is an adaptation of an earlier published method (Su et al., Cyclic Nucleotide Res. 1976, 2, 257-285). Details regarding this method have been published (Chu, W. et al. Bioorg. Med. Chem. 2005, 13, 77-87; Taylor, M. et al. Synapse 2010, 64, 251-266). Confluent (60-80%) HEK cells transfected with recombinant D2-like dopamine receptors were grown in DMEM/10% fetal calf serum containing geneticin in […] flasks. The endogenous ATP pool is radioactively labeled by preincubating the cells in serum-free DMEM/25 mM Hepes medium containing 2 μCi/mL of [2,8-^3H]-adenine (20-Ci/mmol) in a 5% CO2 incubator at 37° C. for 75 min. The radioactive medium was removed by aspiration. Serum-free DMEM (5.6 mL) containing 25 mM HEPES, pH 7.4, and 0.1 mM of the phosphodiesterase inhibitor isobutylmethylxanthine was added to the flask. A […] aliquot of cells was removed and added to 50 μL of forskolin (100 μM) and 50 μL of test drug or quinpirole in DMEM-HEPES. The cells were incubated for 20 min at 37° C. (vortexing every 5 min). The reaction was terminated by the addition of 0.5 mL of 10% trichloroacetic acid (w/v) containing 1.0 mM unlabeled cyclic AMP as a recovery standard. Both the [^3H]-cyclic AMP and the [^3H]-ATP fractions were collected following separation using columns of Dowex AG-50W-X4 and alumina. The final yield of [^3H]-cyclic AMP is corrected for column recovery of unlabeled cyclic AMP determined spectrophotometrically (OD259). The results are reported as percent conversion of [^3H]-ATP into [^3H]-cyclic AMP. The values for the percent inhibition are reported as the actual percent of inhibition of the ^3H-cAMP accumulation relative to the assay performed in the absence of a test compound, minus basal activity. […] The percent maximum response is the value for the inhibition normalized to the value for the full agonist quinpirole.

The target in the next assay is human D2 receptors (Homo sapiens (Human), UniProt P14416). Briefly: D2 Mitogenesis Functional Assay (3H-thymidine uptake, CHOp-D2 cells). Format: cell-based. The settings on record: for Emax at 10 µM: % maximum stimulation vs quinpirole (100%), read-out: D2 Agonist Emax; for IC50: inhibition of quinpirole (30 nM final) stimulation of mitogenesis, read-out: D2 Antagonist IC50. As for the experimental part: (§2) These assays are based on ^3H-thymidine uptake by cells that are proliferating.
CHO cells expressing human D2 receptors (CHOp-D2 cells) were maintained in alpha-MEM with 10% FCS, 0.05% pen-strep, and 200 μg/mL of G418. […] The cells were incubated at 37° C. in alpha-MEM with 10% FCS. After 48-72 hours, the cells were rinsed twice with serum-free alpha-MEM and incubated for 24 hours at 37° C. Serial dilutions of test compounds were made by the Biomek robotics system in serum-free alpha-MEM. In the functional assay for agonism, the medium was removed and replaced with 100 μL of test compound in serum-free alpha-MEM. In the antagonist assay, the serial dilution of the putative antagonist test compound was added in 90 μL (1.1× of final concentration) and 300 nM quinpirole (30 nM final) was added in […]. After another 24-hour incubation at 37° C., 0.25 μCi of [^3H]thymidine in alpha-MEM supplemented with 10% FCS was added to each well and the plates were further incubated for 2 hours at 37° C. The cells were trypsinized by addition of 10× trypsin solution (1% trypsin in calcium-magnesium-free phosphate-buffered saline) and the plates were filtered and counted as usual. Quinpirole was run as an internal control and dopamine was included for comparative purposes. Butaclamol was run as the standard antagonist.

The next assay has as its target D3R (Homo sapiens (Human), UniProt P35462). Kind of assay: D3 Mitogenesis Functional Assay (3H-thymidine uptake, CHOp-D3 cells). Format: cell-based. The conditions noted are these: for Emax at 10 µM: % maximum stimulation vs quinpirole (100%), read-out: D3 Agonist Emax; for IC50: inhibition of quinpirole (30 nM final) stimulation of mitogenesis, read-out: D3 Antagonist IC50. As for the experimental part: as §2
CHO cells expressing human D3 receptors (CHOp-D3 cells) were maintained in alpha-MEM with 10% fetal bovine serum (FBS, Atlas Biologicals), 0.05% pen-strep, and 200 μg/ml of G418. […] The cells are incubated at 37° C. in alpha-MEM with 10% FBS. After 48-72 hours, the cells are rinsed twice with serum-free alpha-MEM and incubated for 24 hours at 37° C. Serial dilutions of test compounds were made by the Biomek robotics system in serum-free alpha-MEM. In the functional assay for agonism, the medium is removed and replaced with 100 μL of test compound in serum-free alpha-MEM. In the antagonist assay, the serial dilution of the putative antagonist test compound was added in 90 μL (1.1× of final concentration) and 300 nM quinpirole (30 nM final) was added in 10 uL. After another 16-hour incubation at 37° C., 0.25 μCi of [^3H]thymidine in alpha-MEM supplemented with 10% FBS was added to each well and the plates were further incubated for 2 hours at 37° C. The cells were trypsinized by addition of 10× trypsin solution (1% trypsin in calcium-magnesium-free phosphate-buffered saline) and the plates were filtered and counted as usual. Quinpirole was run as an internal control and dopamine was included for comparative purposes. Butaclamol was run as the standard antagonist. Data were analyzed using GraphPAD Prism and agonist potency was expressed as EC50 values or % stimulation and antagonist potency was expressed as IC50 values. In these assays, based on the % maximum stimulation as compared to the standard agonist quinpirole (100%) the compounds were classified into following categories: ≧90% full agonist; 70-90% partial to full agonist; <70% partial agonist; 0-20% potential antagonist.

human D2 receptors, sequence (P14416 whole entry): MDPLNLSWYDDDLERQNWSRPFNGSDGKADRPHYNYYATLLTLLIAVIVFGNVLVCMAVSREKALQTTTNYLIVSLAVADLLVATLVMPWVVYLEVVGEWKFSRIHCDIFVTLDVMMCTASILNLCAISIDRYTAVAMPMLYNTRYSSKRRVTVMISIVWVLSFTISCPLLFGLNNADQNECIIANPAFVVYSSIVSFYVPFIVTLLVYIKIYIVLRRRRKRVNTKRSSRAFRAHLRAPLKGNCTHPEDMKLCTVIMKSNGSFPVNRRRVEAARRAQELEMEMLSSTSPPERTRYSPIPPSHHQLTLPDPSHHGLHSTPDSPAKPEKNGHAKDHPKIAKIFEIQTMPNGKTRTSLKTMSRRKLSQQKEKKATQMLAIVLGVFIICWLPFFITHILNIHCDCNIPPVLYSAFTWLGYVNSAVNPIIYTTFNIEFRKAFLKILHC
human D2-long dopamine receptor, sequence (P14416 whole entry): as above
T1 sequence (P35462 whole entry): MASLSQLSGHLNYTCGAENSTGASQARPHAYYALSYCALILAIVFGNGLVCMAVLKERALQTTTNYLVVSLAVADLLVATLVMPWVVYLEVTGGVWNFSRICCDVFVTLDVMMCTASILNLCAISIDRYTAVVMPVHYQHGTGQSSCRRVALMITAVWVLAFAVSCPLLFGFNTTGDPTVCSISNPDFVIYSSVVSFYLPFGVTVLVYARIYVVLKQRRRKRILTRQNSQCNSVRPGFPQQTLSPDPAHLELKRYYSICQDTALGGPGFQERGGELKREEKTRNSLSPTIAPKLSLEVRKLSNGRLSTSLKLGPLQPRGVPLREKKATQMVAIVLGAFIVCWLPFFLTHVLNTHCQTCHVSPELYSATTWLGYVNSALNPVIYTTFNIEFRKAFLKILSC
D3R, sequence (P35462 whole entry): as above

With `Cc1nc(N2CCN(CCCCNC(=O)N3CCN(c4ccccc4)CC3)CC2)cc(C(C)(C)C)n1` [Compound 6, N-(4-(4-(6-(tert-Butyl)-2-methylpyrimidin-4-yl)piperazin-1-yl)butyl)-4-phenylpiperazine-1-carboxamide], in assay [1], the inhibition constant Ki worked out at 29.2 ± 5.3 nM and the “D2/D3 (D3 selectivity ratio, D2 Ki/D3 Ki)” value is recorded as 442. In assay [2], this compound showed a Ki of 12900 ± 2510 nM. In addition, the “D3 Cyclase % Inhibition Normalized” value in assay [3] turned out to be 26.4 ± 4.6%.

With `CC(C)(C)c1nc(N2CCN(CCCCNC(=O)N3CCN(c4ccccc4)CC3)CC2)c2ccccc2n1` [Compound 13, N-(4-(4-(2-(tert-Butyl)quinazolin-4-yl)piperazin-1-yl)butyl)-4-phenylpiperazine-1-carboxamide], in assay [1], the inhibition constant (Ki) was found to be 43.1 ± 4.8 nM and the “D2/D3 (D3 selectivity ratio, D2 Ki/D3 Ki)” value was 94. In assay [2], this compound had a Ki of 4040 ± 965 nM. Also, the “D3 Cyclase % Inhibition Normalized” value in assay [3] was determined as 61.9 ± 6.4%.

For `CC(C)(C)c1nc(N2CCN(CCCCNC(=O)C3CCC(c4ccccc4)CC3)CC2)cc(C(F)(F)F)n1` (stereo not shown) [Compound 103, N-(4-(4-(2-(tert-Butyl)-6-(trifluoromethyl)pyrimidin-4-yl)piperazin-1-yl)butyl)-4-phenylcyclohexanecarboxamide], the “D3 Cyclase % Inhibition Normalized” value in assay [3] is 51.6 ± 13.4%.

As for `CC(C)(C)c1nc(N2CCN(CCCCNC(=O)c3cn4cccnc4n3)CC2)cc(C(F)(F)F)n1` [Compound 114, N-(4-(4-(2-(tert-Butyl)-6-(trifluoromethyl)pyrimidin-4-yl)piperazin-1-yl)butyl)imidazo[1,2-a]pyrimidine-2-carboxamide], in assay [1], the Ki stood at 11.8 ± 1.1 nM and the “D2/D3 (D3 selectivity ratio, D2 Ki/D3 Ki)” value was 37. Moreover, the inhibitory constant (Ki) in assay [2] was found to be 436 ± 43.4 nM. Besides, on human D2 receptors, the Emax at 10 µM was < 1% and the IC50 came out at 205 ± 48 nM. Also, on D3R, the maximal response (Emax) at 10 µM was 14% and the half-inhibitory concentration (IC50) came to 51 ± 21 nM.

As for `CC(C)(C)c1nc(N2CCN(CCCCNC(=O)c3cn4nc(Cl)ccc4n3)CC2)cc(C(F)(F)F)n1` [Compound 116, N-(4-(4-(2-(tert-Butyl)-6-(trifluoromethyl)pyrimidin-4-yl)piperazin-1-yl)butyl)-6-chloroimidazo[1,2-b]pyridazine-2-carboxamide], the inhibition constant Ki in assay [2] was 655 ± 80.6 nM. Besides, at human D2 receptors, the maximum response (Emax) at 10 µM is < 1% and the concentration for half-maximal inhibition (IC50) was 1160 ± 110 nM. Further, the Emax at 10 µM on D3R was < 1%. The “D3 Cyclase % Inhibition Normalized” value in assay [3] turned out to be 31.5 ± 7.0%.

`O=C(NCCCCN1CCN(c2ccnc3ccccc23)CC1)c1cn2ccccc2n1` [Compound 117, N-(4-(4-(Quinolin-4-yl)piperazin-1-yl)butyl)imidazo[1,2-a]pyridine-2-carboxamide]: in assay [1], the Ki is 20.5 ± 3.5 nM and the “D2/D3 (D3 selectivity ratio, D2 Ki/D3 Ki)” value is 28. The compound further had an inhibitory constant (Ki) in assay [2] of 572 nM. At D3R, the Emax at 10 µM is < 20% and the IC50 came out at 120 ± 22 nM. In addition, the “D3 Antagonist Imax” value on D3R (inhibition of quinpirole stimulation of mitogenesis) is given as 97.2%.

For `CC(C)(C)c1nc(N2CCN(CCCCNC(=O)c3cn4ccccc4n3)CC2)c2ccccc2n1` [Compound 123, N-(4-(4-(2-(tert-Butyl)quinazolin-4-yl)piperazin-1-yl)butyl)imidazo[1,2-a]pyridine-2-carboxamide], the Ki in assay [1] worked out at 78.2 ± 19.2 nM; in assay [2] it was 1450 ± 275 nM.

Consider `O=C(NCCCCN1CCN(c2ccnc3cc(C(F)(F)F)ccc23)CC1)c1cn2ccccc2n1` [Compound 124, N-(4-(4-(7-(Trifluoromethyl)quinolin-4-yl)piperazin-1-yl)butyl)imidazo[1,2-a]pyridine-2-carboxamide], for which the inhibitory constant (Ki) came to 98.7 ± 24.3 nM in assay [1] and 4980 ± 843 nM in assay [2].

In the case of `O=C(NCCCCN1CCN(c2ccc3ccccc3n2)CC1)c1cn2cccnc2n1` [Compound 126, N-(4-(4-(Quinolin-2-yl)piperazin-1-yl)butyl)imidazo[1,2-a]pyrimidine-2-carboxamide], the Ki in assay [1] is 161 nM; in assay [2], 1260 ± 142 nM. The “D2/D3 (D3 selectivity ratio, D2 Ki/D3 Ki)” value in assay [1] is listed as 8.

As to `O=C(NCCCCN1CCN(c2ncnc3ccccc23)CC1)c1cn2ccccc2n1` [Compound 127, N-(4-(4-(Quinazolin-4-yl)piperazin-1-yl)butyl)imidazo[1,2-a]pyridine-2-carboxamide], the inhibitory constant (Ki) in assay [1] was 253 nM; in assay [2], 1130 ± 63.8 nM. The “D2/D3 (D3 selectivity ratio, D2 Ki/D3 Ki)” value in assay [1] is reported as 4.

On to `O=C(NCCCCN1CCN(c2ccnc3ccccc23)CC1)c1nc2ccccn2c1Br` [Compound 128, 3-Bromo-N-(4-(4-(quinolin-4-yl)piperazin-1-yl)butyl)imidazo[1,2-a]pyridine-2-carboxamide], for which, in assay [1], the affinity, expressed as Ki, was 285 ± 77 nM and the “D2/D3 (D3 selectivity ratio, D2 Ki/D3 Ki)” value is 8. In assay [2], this compound had an inhibitory constant (Ki) of 2330 ± 785 nM.

Take `O=C(NCCCCN1CCN(c2ccnc3ccccc23)CC1)c1nc2ccccn2c1Cl` [Compound 129, 3-Chloro-N-(4-(4-(quinolin-4-yl)piperazin-1-yl)butyl)imidazo[1,2-a]pyridine-2-carboxamide]: in assay [1], the Ki turned out to be 323 ± 75 nM and the “D2/D3 (D3 selectivity ratio, D2 Ki/D3 Ki)” value is 11. The compound further came in with a Ki in assay [2] of 3560 ± 1950 nM.

One may read the Ki as a dissociation constant, usually derived from enzyme kinetics or from competition with a known ligand. What is called Emax is the size of the effect at its maximum, as opposed to the concentration needed. As a reminder, the IC50 is the concentration that inhibits the measured activity by half.
